Measurements published in patent US8309790B2, “Animal models for demyelination disorders” (University of Chicago, priority 2005, dated 2012).

System: CNS of 14-day-old double transgenic mice
Assay: Ectopic expression of IFN-γ in the CNS during development (released from doxycycline at E14), PERK+/+ or PERK+/− background
Assay type: in vivo
Description: To study the effect of INF-γ on the myelination of oligodendrocytes during mouse development, transgenic mice that allow for temporally regulated delivery of IFN-γ to the CNS using the tetracycline (tet) controllable system (Lin, et al. (2004) J. Neurosci. 24: 10074-10083) were generated. To drive tTA expression in astrocytes, the transcriptional regulatory region of the glial fibrillary acidic protein (GFAP) gene was chosen (Brenner, et al. (1994) J. Neurosci. 14: 1030-1037). GFAP/tTA mice were mated with TRE/IFN-γ mice to produce animals hemizygous for both transgenes. When these mice are maintained on doxycycline (DOX+), expression of the IFN-γ transgene is repressed (FIG. 10A); when the double transgenic mice are released from doxycycline (DOX−) INF-γ is expressed. For the purpose of these experiments, mice received doxycycline up to day 14 of development (E14), at which time the experimental animals (DOX−) stopped receiving doxycycline, while the control animals (DOX+) were continuosly fed the dug. The mRNA for IFN-γ could be detected in the DOX− mice as early as 10 days after birth (data not shown).
Real time PCR analysis was performed to determine the levels of expression of INF-γ, MHC-1, BIP, CHOP, and caspase 12. The primers for the PCR reactions for BIP, CHP and caspase 12 are given in example 1. The sense and antisense primers for INF-γ were […] (SEQ ID NO: 39) and […] (SEQ ID NO: 40), respectively; and the sense and antisense primers for MHC-1 were MHC-I sense primer: ATTCCCCAAAGGCCCATGT (SEQ ID NO: 1); and MHC-I antisense primer: […] (SEQ ID NO: 2).
Western blot analysis was performed on the CNS of 14 day old mice to determine the expression of caspase-12 as described in Example 6.
Brain and spinal cord tissue were analyzed using immunohistochemical methods as follows. Anesthetized mice were perfused through the left cardiac ventricle with 4% paraformaldehyde in 0.1M PBS. The half-saggital brains and transcervical spinal cord were removed, postfixed with paraformaldehyde, cryopreserved in 30% sucrose, embedded in OCT and frozen on dry ice. Frozen sections were cut in a cryostat at a thickness of 10 μm. Coronal sections at the fornix region of the corpus callosum corresponding to Sidman sections 241-251 were selected for use, and all comparative analyses were restricted to midline corpus callosum (Sidman, et al. (1971) Atlas of the Mouse Brain and Spinal Cord (Harvard Univ. Press, Cambridge, Mass.). For immunohistochemistry, frozen sections were treated with −20° C. acetone, blocked with PBS containing 10% NGS and 0.1% Triton X-100 and incubated overnight with the primary antibody diluted in blocking solution. Appropriate fluorochrome- or enzyme-labeled secondary antibodies (Vector Laboratories, Burlingame, Calif.) were used for detection. An antibody against CC1 (APC7, 1:50; EMD Biosciences, Inc., La Jolla, Calif.) was used as a marker for mature oligodendrocytes. Antibody against MBP (1:1000; Stemberger Monoclonals, Lutherville, […].) was used to verify the degree of myelination. Antibody against active-caspase-3 (1:50, Cell signaling Technology, Beverly, Mass.) was used as a marker for apoptotic cells. Fluorescent stained sections were mounted with Vectashield mounting medium with DAPI (Vector Laboratories) and visualized with a Zeiss Axioplan fluorescence microscope. Images were captured using a Photometrics PXL CCD camera connected to an Apple Macintosh computer using the Open Lab software suite. Immunopositive cells were quantified by counting positive cells within the median of the corpus callosum, confined to an area of 0.04 mm^2. Only those cells with nuclei observable by DAPI staining were counted. Each MBP immunostaining slide was scored on a scale of zero to four. A score of zero indicates complete demyelination, and a score of four indicates normal myelination in the corpus callosum of adult mice. […]

[1] = CNS, PND 14, DOX− released at E14, real-time PCR

interferon-γ [IFN-γ]
caspase-12 expression (CNS, PND 14, DOX− released at E14): strongly enhanced | BIP expression [1]: approximately 1.6 times the control levels | CHOP expression [1]: ~2 times the control levels | mice that experienced tonic seizures (E14 DOX− PERK+/−): approximately two-thirds | decrease of oligodendrocyte numbers in the spinal cord (IFN-γ expressing mice on a PERK+/− background, 14-day-old, CC1): more than 50% | unmyelinated axons in the spinal cord (PERK+/− mice that express IFN-γ in the CNS, 14-day-old): 81%±14.9% | number of TUNEL positive oligodendrocytes in the cervical spinal cord, PERK+/− relative to wild-type background (released from doxycycline at E14): 2.5 times | mice that died by post natal day (PND) 27 (released from doxycycline at E14, PERK+/− background): more than 90% | survival (released from doxycycline at E14, wild-type background): normal survival | unmyelinated axons in the spinal cord (wild-type background, released from doxycycline at E14): 30%±12.9%
